Counter-ions that a name gives are not always drawn.
How the values were obtained:
[1] = test system: durch Tetrabenazin induzierte Ptosis; assay: Tetrabenazine antagonism (antagonism of tetrabenazine-induced ptosis); type: in vivo, Mäusen; conditions: Mus musculus, ip; dose at which ptosis induced by 20 mg/kg i.p. Tetrabenazin is reduced by 50 %; mice; read-out: DE50 (the source's name)
Text: (§1) Die Verbindungen wurden auf anxiolytische, nootrope und antidepressive Eigenschaften geprüft. Als Leittest für die anxiolytische Wirkung diente die Antagonisierung der Fußschock-induzierten Aggressivität nach Tedeschi^1; für die antidepressive Wirkung der Antitetrabenazin^2- und Amphetaminpotenzierungstest . Beispielsweise wurden für die antidepressiven Wirkungen der erfindungsgemäßen Substanzen folgende Werte erhalten:
1) Tetrabenazin Antagonismus
Antidepressiv wirksame Substanzen antagonisieren die durch Tetrabenazin induzierte Ptosis bei Mäusen. Der DE50-Wert gibt diejenige Dosis an, bei der die durch 20 mg/kg i.p. Tetrabenazin induzierte Ptosis zu 50 % reduziert ist. Dazu seien Beispiele genannt:
• 1 Tedeschi et al., J. Pharmacol. Exp. Ther. 129, 28-34, 1959 • 2 J. L. Howard et al., in: Antidepressants: Neurochemical,.Behavioral and Clinical Perspectives, herausgegeben von S. J. Enna et al., Raven Press N. Y., S. 107-120, 1981.

[2] = test system: Amphetamininduzierte stereotype Verhalten; assay: Amphetamine potentiation (potentiation of amphetamine-induced stereotyped behaviour); type: in vivo, Ratte; conditions: ip; dose at which behaviour induced by 2 mg/kg DL-Amphetaminsulfat i. v. is enhanced by 50 %; rat; read-out: DE50 (the source's name)
Text: as §1
2) Amphetamin-Potenzierung
Antidepressiv wirksame Substanzen potenzieren das Amphetamininduzierte stereotype Verhalten bei der Ratte.
Der angegebene DE50-Wert ist die Dosis, bei der das Amphetamininduzierte Verhalten nach Gabe von 2 mg/kg DL-Amphetaminsulfat i. v. um 50 % verstärkt ist.

Row | SMILES | ED50 [1] [mg/kg] | ED50 [2] [mg/kg]
1 | CC(NC(C)(C)Cc1ccccc1)C(=O)c1ccccc1 (stereo not shown) [Beispiel 4, 1-Phenyl-2-(1,1-dimethyl-2-phenylethylamino)-propan-1-onhydrochlorid] | 19 | 
2 | CC(NC(C)(C)Cc1ccccc1)C(=O)c1cccc(C(F)(F)F)c1 (stereo not shown) [Beispiel 7, 1-(3-Trifluormethylphenyl)-2-(1,1-dimethyl-2-phenylethylamino)propan-1-onhydrochlorid] | 10 | 
3 | CC(NC(C)(C)Cc1ccccc1)C(=O)c1cccc(F)c1 (stereo not shown) [Beispiel 6, 1-(3-Fluorphenyl)-2-(1,1-dimethyl-2-phenylethylamino)propan-1-onhydrochlorid] | 6 | 
4 | CC(Cc1ccccc1)NC(C)C(=O)c1cccc(Cl)c1 (stereo not shown) [Beispiel 2, 1-(3-Chlorphenyl)-2-(1-methyl-2-phenyl-ethylamino) propan-1-onhydrochlorid] | 14 | 6
5 | COc1ccc(CC(C)(C)NC(C)C(=O)c2cccc(Cl)c2)cc1 (stereo not shown) [Beispiel 5, 1-(3-Chlorphenyl)-2-(1,1-dimethyl-2-(4-methoxyphenyl)ethylamino)propan-1-onhydrochlorid] | 6.5 | 
6 | CC(NC(C)(C)Cc1ccccc1)C(=O)c1cccc(Cl)c1 (stereo not shown) [Beispiel 1, 1-(3-Chlorphenyl)-2-(1,1-dimethyl-2-phenylethylamino)propan-1-onhydrochlorid] | 1 | 13
7 | CC(NC(C)(C)Cc1ccc(Cl)cc1)C(=O)c1cccc(Cl)c1 (stereo not shown) [Beispiel 3, 1-(3-Chlorphenyl)-2-(1,1-dimethyl-2-(4-chlor-phenyl)ethylamino)propan-1-onhydrochlorid] | 12 | 9

From patent EP0167945A2, “Phenylethylaminopropiophenone derivatives, process for their preparation et medicines containing them” (Troponwerke GmbH & Co. KG, priority 1984, dated 1986)
